Activity calls are given as the source filed them. No cut-off for these calls is given here.

The test system of the first experiment is Mus musculus. In words: Anticancer activity against peroxynitrite/TPA-induced skin cancer in ICR mouse assessed as delay in tumor promotion at 0.187 mg/day, po administered for 2 weeks. In kind it is functional, organism-based.
`Oc1cc(O)cc([C@H]2c3c(cc(O)c4c3O[C@H](c3ccc(O)c(O)c3)[C@@H](O)C4)O[C@@H]2c2ccc(O)c(O)c2)c1` [JEZONOCINOL B]: the result was Active.

Tested on in the next experiment: not listed separately
In words: Anticancer activity against peroxynitrite/TPA-induced skin cancer in ICR mouse assessed as average number of papilloma per mouse at 0.187 mg/day, po administered for 2 weeks measured on week 20. The experiment is classed as functional.
As to `Oc1cc(O)cc([C@H]2c3c(cc(O)c4c3O[C@H](c3ccc(O)c(O)c3)[C@@H](O)C4)O[C@@H]2c2ccc(O)c(O)c2)c1` [JEZONOCINOL B], the Activity is listed as 3.1.

Tested on in another experiment: not listed separately
In words: Antitumor initiating activity in human Chang cells assessed as ratio of inhibition of cellular transformation in presence of NOR1 to compound and NOR1 at 350 nmol treated 1 min before NOR1 addition measured after 1 hr by light microscopy. The experiment is classed as functional.
As to `Oc1cc2c3c(c4cc(O)cc5c4c(c3c1)[C@@H](c1ccc(O)c(O)c1)O5)[C@@H](c1ccc(O)c(O)c1)O2` [JEZONOFOL], the Ratio amounted to 2.3.
On the same count and under the same terms, the result for `COc1cc([C@@H]2Oc3c(OC)cc(CCCO)cc3[C@H]2CO)ccc1O` [DIHYDRODEHYDRODICONIFERYL ALCOHOL] reads 1.8.
On the same count and under the same terms, the result for `CC(=O)Oc1cc(OC(C)=O)c2c(c1)[C@@H]1C3C(=CC(=O)C[C@H]1c1ccc(OC(C)=O)c(OC(C)=O)c1)O[C@H](c1ccc(OC(C)=O)c(OC(C)=O)c1)[C@@H](O)[C@H]23` (stereo not given in full) reads 1.8.
As for `O=c1c(O)c(-c2ccc(O)c(O)c2)oc2cc(O)cc(O)c12` [QUERCETIN], the Ratio was 2.9.
Still for that read-out and setting: for `COc1cc(C[C@H]2CO[C@H](c3ccc(O)c(OC)c3)[C@H]2CO)ccc1O` [LARICIRESINOL] the value was 2; for `CC(=O)Oc1cc(OC(C)=O)cc([C@H]2c3c(cc(OC(C)=O)c4c3O[C@H](c3ccc(OC(C)=O)c(OC(C)=O)c3)[C@@H](O)C4)O[C@@H]2c2ccc(OC(C)=O)c(OC(C)=O)c2)c1`, 1.9.
Take `COc1cc(/C=C2/C(=O)O[C@H](c3ccc(O)c(O)c3)[C@H]2c2cc(O)cc(O)c2)ccc1O` [JEZONOLIDE]: the Ratio turned out to be 2.1.
The same measure, in the same setting: for `CC(C)c1cc2c(cc1O)[C@@]1(C)CCC[C@@](C)(C(=O)O)[C@@H]1CC2` the value was 2.
The same measure, in the same setting: for `Oc1cc(O)cc(/C=C/c2ccc(O)c(O)c2)c1` [PICEATANNOL] the value was 2.
The same measure, in the same setting: for `Oc1cc(O)cc([C@H]2c3c(/C=C/c4ccc(O)c(O)c4)cc(O)cc3O[C@@H]2c2ccc(O)c(O)c2)c1` [TRANS-SCIRPUSIN B] the value was 2.2; for `O=C1C=C2O[C@H](c3ccc(O)c(O)c3)[C@@H](O)[C@@H]3c4c(O)cc(O)cc4[C@H](C23)[C@H](c2ccc(O)c(O)c2)C1` (stereo not given in full) [JEZONOCINOL C], 2.3; for `CC(=O)Oc1cc(/C=C/c2ccc3c(c2)O[C@H](c2ccc(OC(C)=O)c(OC(C)=O)c2)[C@@H](c2cc(OC(C)=O)cc(OC(C)=O)c2)O3)cc(OC(C)=O)c1`, 1.8.
Turning to `CC(=O)Oc1cc(OC(C)=O)cc([C@@H]2c3c(cc(OC(C)=O)c4c3O[C@H](c3ccc(OC(C)=O)c(OC(C)=O)c3)[C@@H](O)C4)O[C@H]2c2ccc(OC(C)=O)c(OC(C)=O)c2)c1`, the Ratio was determined as 1.9.
On the same count and under the same terms, for `Oc1cc(O)cc([C@H]2c3c(cc(O)c4c3O[C@H](c3ccc(O)c(O)c3)[C@@H](O)C4)O[C@@H]2c2ccc(O)c(O)c2)c1` [JEZONOCINOL B] the value was 2.7; for `CC(=O)Oc1cc(OC(C)=O)cc([C@H]2c3c(/C=C/c4ccc(OC(C)=O)c(OC(C)=O)c4)cc(OC(C)=O)cc3O[C@@H]2c2ccc(OC(C)=O)c(OC(C)=O)c2)c1`, 1.9; for `O=C1C=C(/C=C/c2ccc(O)c(O)c2)[C@@H]2C(=O)[C@H]1[C@H](c1ccc(O)c(O)c1)[C@H]2c1cc(O)cc(O)c1` [JEZONODIONE], 2.2.
The same measure, in the same setting: the result for `COc1cc(/C=C/C(=O)CC(=O)/C=C/c2ccc(O)c(OC)c2)ccc1O` [CURCUMIN] reads 2.1.
On the same count and under the same terms, for `CC(=O)Oc1ccc(/C=C/c2cc(OC(C)=O)cc3c2[C@H](c2cc(OC(C)=O)cc(OC(C)=O)c2)[C@@H](c2ccc(OC(C)=O)c(OC(C)=O)c2)O3)cc1` the value was 1.8; for `Oc1cc(O)cc(/C=C/c2ccc3c(c2)O[C@H](c2ccc(O)c(O)c2)[C@@H](c2cc(O)cc(O)c2)O3)c1` [CASSIGAROL E], 2.1; for `O=Cc1ccc(O)c(O)c1` [PROTOCATECHUALDEHYDE], 1.8.
Regarding `O=C(O)/C=C/c1ccc(O)cc1` [COUMARIC ACID], the Ratio worked out at 1.9.
Same read-out and setting: for `COc1cc([C@H]2c3cc(O)c(OC)cc3C[C@@H](CO)[C@@H]2CO)ccc1O` [ISOLARICIRESINOL] the value was 2; for `COc1cc([C@H]2Oc3cc(C(=O)O)ccc3O[C@@H]2CO)ccc1O` [3-O-METHYL ISOAMERICANOIC ACID A], 1.7.
The same measure, in the same setting: the result for `O=C(O)c1ccc(O)c(O)c1` [PROTOCATECHUIC ACID] reads 1.8; that for `O=C1c2c(O)cc(O)cc2O[C@H](c2ccc(O)c(O)c2)[C@H]1O` [(+)-TAXIFOLIN], 2.5; that for `Oc1cc(O)cc([C@@H]2c3c(cc(O)c4c3O[C@H](c3ccc(O)c(O)c3)[C@@H](O)C4)O[C@H]2c2ccc(O)c(O)c2)c1` [JEZONOCINOL A], 2.7.
On the same count and under the same terms, the result for `Oc1ccc(/C=C/c2cc(O)cc3c2[C@H](c2cc(O)cc(O)c2)[C@@H](c2ccc(O)c(O)c2)O3)cc1` [SCIRPUSIN A] reads 2.

Tested on in another experiment: not listed separately
In words: Anticancer activity against peroxynitrite/TPA-induced skin cancer in ICR mouse assessed as occurrence of papilloma at 0.187 mg/day, po administered for 2 weeks measured on week 11. The experiment is classed as functional.
In the case of `Oc1cc(O)cc([C@H]2c3c(cc(O)c4c3O[C@H](c3ccc(O)c(O)c3)[C@@H](O)C4)O[C@@H]2c2ccc(O)c(O)c2)c1` [JEZONOCINOL B], the Activity is listed as 27%.
